From article PMC3104405 (Biochemical and biophysical research communications, 2011)
Where “and” joins values, the source holds several entries; their conditions need not be identical. Equal values may be shown once. Read-outs that look alike come from different tables or passages of the source.

Assays:
[1] = molecular target: T1, anthrax lethal factor (LF) (Bacillus anthracis, UniProt P15917)
[2] = molecular target: T1, anthrax lethal factor (LF); details: for Km / kcat / kcat/Km: pH 7.4

T1 sequence (P15917 34-809 limits assumed): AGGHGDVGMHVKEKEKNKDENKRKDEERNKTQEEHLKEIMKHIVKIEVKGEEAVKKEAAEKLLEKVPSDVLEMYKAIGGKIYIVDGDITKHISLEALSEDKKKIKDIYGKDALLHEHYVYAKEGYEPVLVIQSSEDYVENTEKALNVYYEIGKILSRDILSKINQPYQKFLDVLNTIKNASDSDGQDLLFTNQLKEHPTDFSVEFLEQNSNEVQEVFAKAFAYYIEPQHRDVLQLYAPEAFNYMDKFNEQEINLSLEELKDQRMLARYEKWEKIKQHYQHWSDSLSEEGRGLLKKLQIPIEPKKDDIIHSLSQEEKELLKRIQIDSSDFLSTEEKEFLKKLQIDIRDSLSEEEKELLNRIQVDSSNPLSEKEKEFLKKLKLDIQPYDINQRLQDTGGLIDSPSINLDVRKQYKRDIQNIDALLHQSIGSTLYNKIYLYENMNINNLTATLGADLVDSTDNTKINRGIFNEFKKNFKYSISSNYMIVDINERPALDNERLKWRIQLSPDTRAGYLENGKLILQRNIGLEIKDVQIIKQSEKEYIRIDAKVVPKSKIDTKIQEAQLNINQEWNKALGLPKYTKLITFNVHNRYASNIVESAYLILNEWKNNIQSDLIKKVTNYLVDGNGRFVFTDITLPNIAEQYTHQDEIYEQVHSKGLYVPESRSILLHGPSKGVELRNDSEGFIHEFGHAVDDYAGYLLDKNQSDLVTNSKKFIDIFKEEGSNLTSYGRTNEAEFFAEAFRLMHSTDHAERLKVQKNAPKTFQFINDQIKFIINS

Substance	kcat/Km [1]	Km [2] [µM]	kcat [2] [s⁻¹]	kcat/Km [2] [M⁻¹ s⁻¹]	fold higher kcat/Km than substrate No. 2 [2]
Mca-KKPTP-IQLN-Dnp [Substrate 1]	1.5 min^−1 M^−1 and 1.5 ^a min^−1 M^−1				
Mca-KKVYP-YPMEK-Dnp [Substrate 2]		58.5	74.17	1.27	
Mca-KKWLM-YPLEK-Dnp [Substrate 3]		16.9	39.83	2.33	about two-fold
